A word on the MIC: it is the smallest concentration in the dilution series that meets the test's criterion for growth inhibition. For orientation: IC50 means the concentration that gives 50% inhibition.

In test [1] the test system is Trichosporon beigelii 1188. Nature of the test: In vitro antifungal susceptibility, broth microdilution. The conditions noted are these: read-out: MIC (IC80) TB. Format: cell-based. An outline of the steps:
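Twofold dilutions (500 to 0.975 μmol/L final) in RPMI 1640 with MOPS, pH 7.0, per CLSI broth microdilution. MIC taken as IC80 for yeasts (M27-A2) or IC50 for moulds (M38-A) versus drug-free control, read after 24 and 48 h static incubation at 35 °C.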
(In general: Dilution methods test growth across graded concentrations, often in twofold steps.)

The test system of the next test is Absidia corymbifera 272. The test is described as above. Format: cell-based. The conditions noted are these: read-out: MIC (IC50) AC.
Setting [2] is: Trichosporon beigelii, 1188, 24 h.
The mark [3] stands for this setting: Trichosporon beigelii, 1188, 48 h.
Setting [4] is: Lichtheimia corymbifera, 272, 24 h.
Where [5] appears, read: Lichtheimia corymbifera, 272, 48 h.

In brackets after ≈: the same amount, converted by molar mass. Where two headings read alike, the source gives them in different places.

Regarding `CN(C)C(=S)N/N=C/c1ccc(Cl)c(Cl)c1` [Compound 3h, (E)-2-(3,4-Dichlorobenzylidene)-N,N-dimethylhydrazinecarbothioamide], the minimal inhibitory concentration (MIC) in test [1] (setting [2]) was found to be 125 µM (≈ 34.5 µg/mL); in test [1] (setting [3]), 500 µM (≈ 138 µg/mL). Besides, the IC50 in the test on Absidia corymbifera 272 (setting [4]) and with Absidia corymbifera 272 (setting [5]) was more than 500 µM throughout.
For the molecule `NC(=S)N/N=C/c1ccc(Br)cc1` [Compound 3k, (E)-2-(4-Bromobenzylidene)hydrazinecarbothioamide], the minimum inhibitory concentration (MIC) in test [1] (setting [2]) and in test [1] (setting [3]) was 500 µM (≈ 129 µg/mL) each time. For the same molecule, the IC50 in the test on Absidia corymbifera 272 (setting [4]) and in the test with Absidia corymbifera 272 (setting [5]) was more than 500 µM throughout.
As to `CN(C)C(=S)N/N=C/c1ccc(Br)cc1` [Compound 3m, (E)-2-(4-bromobenzylidene)-N,N-dimethylhydrazinecarbothioamide], the MIC in test [1] (setting [2]) was found to be 15.6 µM (≈ 4.47 µg/mL); in test [1] (setting [3]) it was 62.5 µM (≈ 17.9 µg/mL). Further, the concentration for half-maximal inhibition (IC50) in the test with Absidia corymbifera 272 (setting [4]) and in the test on Absidia corymbifera 272 (setting [5]) was more than 500 µM each time.

Values taken from paper PMC6268061, “Investigation of the Biological Properties of (Hetero)Aromatic Thiosemicarbazones” (Molecules, 2012).
